In ChEMBL document CHEMBL3853324, “Optimizing Protonation States for Selective Double-Strand DNA Photocleavage in Hypoxic Tumors: pH-Gated Transitions of Lysine Dipeptides” (J Med Chem, 2016):
Active and inactive are the calls of the source. The calls are words filed in the database; no cut-off is given here.

Assays:
[1] = organism: Bos taurus; test: Binding affinity to calf thymus DNA assessed as binding constant at 15 uM and pH 8 by UV-spectroscopic analysis
[2] = Displacement of ethidium bromide from DNA (unknown origin) assessed as Stem-Volmer quenching constant at pH 7 by UV-spectroscopic analysis; set-up: unit not given here
[3] = Displacement of ethidium bromide from DNA (unknown origin) assessed as Stem-Volmer quenching constant at pH 8 by UV-spectroscopic analysis; set-up: unit not given here
[4] = Dissociation constant, pKa of the compound for first ionization at 10 uM by fluorescence analysis; assay type: physicochemical
[5] = Dissociation constant, pKa of the compound for second ionization at 10 uM by fluorescence analysis; assay type: physicochemical
[6] = Displacement of ethidium bromide from DNA (unknown origin) assessed as Stem-Volmer quenching constant at pH 6 by UV-spectroscopic analysis; set-up: unit not given here
[7] = organism: Bos taurus; test: Binding affinity to calf thymus DNA assessed as binding constant at 15 uM and pH 6 by UV-spectroscopic analysis
[8] = organism: Bos taurus; test: Binding affinity to calf thymus DNA assessed as binding constant at 15 uM and pH 7 by UV-spectroscopic analysis
[9] = tested on: Escherichia coli; test: Induction of Escherichia coli supercoiled pBR322 plasmid DNA photocleavage at 15 uM and pH 6 to 8 measured after 1 hr of UV-irradiation by densitometric analysis
[10] = organism: Bos taurus; test: Ratio of binding affinity to calf thymus DNA at pH 8 to binding affinity to calf thymus DNA at pH 6
[11] = tested on: Escherichia coli; test: Induction of Escherichia coli supercoiled pBR322 plasmid DNA photocleavage assessed as double stranded break formation per molecule at pH 6 at 15 uM measured after 8 mins of UV-irradiation by densitometric analysis
[12] = tested on: Escherichia coli; test: Induction of Escherichia coli supercoiled pBR322 plasmid DNA photocleavage assessed as double stranded break formation per molecule at pH 6 at 15 uM measured after 6 mins of UV-irradiation by densitometric analysis
[13] = tested on: Escherichia coli; test: Induction of Escherichia coli supercoiled pBR322 plasmid DNA photocleavage assessed as single stranded break formation per molecule at pH 6 at 15 uM measured after 8 mins of UV-irradiation by densitometric analysis
[14] = Dissociation constant, pKa of the compound in D2O for second ionization at 1 mM by H1-NMR analysis; assay type: physicochemical
[15] = tested on: Escherichia coli; test: Induction of Escherichia coli supercoiled pBR322 plasmid DNA photocleavage assessed as ratio of single stranded break to double stranded break formation per molecule at pH 6 at 15 uM measured after 8 mins of UV-irradiation by densitometric analysis
[16] = tested on: Escherichia coli; test: Induction of Escherichia coli supercoiled pBR322 plasmid DNA photocleavage assessed as single stranded break formation per molecule at pH 6 at 15 uM measured after 4 mins of UV-irradiation by densitometric analysis
[17] = Dissociation constant, pKa of the compound in D2O for first ionization at 1 mM by H1-NMR analysis; assay type: physicochemical
[18] = tested on: Escherichia coli; test: Induction of Escherichia coli supercoiled pBR322 plasmid DNA photocleavage assessed as ratio of single stranded break to double stranded break formation per molecule at pH 6 at 15 uM measured after 6 mins of UV-irradiation by densitometric analysis
[19] = tested on: Escherichia coli; test: Induction of Escherichia coli supercoiled pBR322 plasmid DNA photocleavage assessed as single stranded break formation per molecule at pH 6 at 15 uM measured after 6 mins of UV-irradiation by densitometric analysis
[20] = tested on: Escherichia coli; test: Induction of Escherichia coli supercoiled pBR322 plasmid DNA photocleavage assessed as ratio of single stranded break to double stranded break formation per molecule at pH 6 at 15 uM measured after 4 mins of UV-irradiation by densitometric analysis
[21] = tested on: Escherichia coli; test: Induction of Escherichia coli supercoiled pBR322 plasmid DNA photocleavage assessed as double stranded break formation per molecule at pH 6 at 15 uM measured after 4 mins of UV-irradiation by densitometric analysis
[22] = tested on: Escherichia coli; test: Induction of Escherichia coli supercoiled pBR322 plasmid DNA photocleavage at 15 uM and pH 6 in presence of DMSO by densitometric analysis
[23] = tested on: A-375; test: Induction of DNA damage in human A375 cells assessed as abasic site formation at 3 uM preincubated for 1 hr followed by UV-irradiation for 2 hrs; assay type: functional
[24] = tested on: A-375; test: Induction of DNA damage in human A375 cells assessed as abasic site formation at 3 uM preincubated for 1 hr followed by UV-irradiation for 2 hrs relative to control; assay type: functional
[25] = tested on: Escherichia coli; test: Induction of Escherichia coli supercoiled pBR322 plasmid DNA photocleavage at 15 uM and pH 6 in presence of NaN3 by densitometric analysis
[26] = tested on: Escherichia coli; test: Induction of Escherichia coli supercoiled pBR322 plasmid DNA photocleavage at 15 uM and pH 6 in presence of glycerol by densitometric analysis

Q: Which Kb [1] does the source give for `C[C@H](N)C(=O)NC[C@H](N)C(=O)Nc1ccc(C#Cc2c(F)c(F)nc(F)c2F)cc1` here?
A: Its Kb is 20500.

Q: What about the KSV [2] of the same compound?
A: The KSV was 4.9.

Q: What about the KSV [3] of the same compound?
A: The KSV was 3.1.

Q: And the pKa at 10 µM [4]?
A: Its pKa at 10 µM is 5.5.

Q: What about the pKa at 10 µM [5] of the same compound?
A: Its pKa at 10 µM is 8.1.

Q: And the KSV [6]?
A: Its KSV is 9.

Q: What about the Kb [7] of the same compound?
A: The Kb was 5850.

Q: And the Kb [8]?
A: The Kb was 15000.

Q: And the Activity [9]?
A: The Activity was “Active”.

Q: And the Ratio [10]?
A: Its Ratio is 3.5.

Q: What does the source list for `C[C@H](N)C(=O)NCCCC[C@H](N)C(=O)Nc1ccc(C#Cc2c(F)c(F)nc(F)c2F)cc1`?
A: Kb [1]: 30300; KSV [2]: 5.7; KSV [3]: 3.4; Activity [11]: 0.29; Activity [12]: 0.19; pKa at 10 µM [4]: 7.3; Activity [13]: 1.9; KSV [6]: 6.8; pKa at 1000 µM [14]: 7.4; Ratio [15]: 6.6; Activity [16]: 0.6; pKa at 1000 µM [17]: 7.3; Kb [7]: 2890; Ratio [18]: 9.1; Activity [19]: 1.7; Kb [8]: 8890; Ratio [10]: 10.5; Ratio [20]: 9.4; Activity [21]: 0.07

Q: For `N[C@@H](Cc1ccccc1)C(=O)NCCC[C@H](N)C(=O)Nc1ccc(C#Cc2c(F)c(F)nc(F)c2F)cc1`, which Kb [1] is on record?
A: The Kb was 32100.

Q: What about the KSV [2] of the same compound?
A: Its KSV is 23.6.

Q: And the KSV [3]?
A: The KSV was 6.3.

Q: And the pKa at 10 µM [4]?
A: Its pKa at 10 µM is 7.1.

Q: And the KSV [6]?
A: The KSV was 27.8.

Q: What about the pKa at 1000 µM [14] of the same compound?
A: The pKa at 1000 µM was 7.2.

Q: And the pKa at 1000 µM [17]?
A: Its pKa at 1000 µM is 7.2.

Q: And the Kb [7]?
A: Its Kb is 10700.

Q: And the Activity [22]?
A: Its Activity is “Active”.

Q: And the Kb [8]?
A: The Kb was 12700.

Q: And the Activity [9]?
A: Its Activity is “Active”.

Q: And the Ratio [10]?
A: The Ratio was 3.

Q: With `N[C@@H](Cc1ccccc1)C(=O)NCCCC[C@H](N)C(=O)Nc1ccc(C#Cc2c(F)c(F)nc(F)c2F)cc1` as the compound, how does the Kb [1] read?
A: Its Kb is 66700.

Q: And the KSV [2]?
A: The KSV was 9.2.

Q: And the KSV [3]?
A: Its KSV is 6.7.

Q: And the Activity [11]?
A: Its Activity is 0.21.

Q: And the Activity [12]?
A: The Activity was 0.13.

Q: And the pKa at 10 µM [4]?
A: Its pKa at 10 µM is 7.3.

Q: And the Activity [23]?
A: The Activity was 17.

Q: And the Activity [13]?
A: The Activity was 1.7.

Q: And the KSV [6]?
A: Its KSV is 27.8.

Q: And the pKa at 1000 µM [14]?
A: Its pKa at 1000 µM is 6.7.

Q: What about the “fold change (FC)” value [24] of the same compound?
A: Its value is 2.

Q: And the Ratio [15]?
A: Its Ratio is 8.

Q: And the Activity [16]?
A: The Activity was 0.7.

Q: And the pKa at 1000 µM [17]?
A: The pKa at 1000 µM was 6.6.

Q: What about the Kb [7] of the same compound?
A: The Kb was 11700.

Q: And the Ratio [18]?
A: Its Ratio is 8.04.

Q: What about the Activity [19] of the same compound?
A: Its Activity is 1.

Q: And the Kb [8]?
A: The Kb was 13100.

Q: What about the Ratio [10] of the same compound?
A: The Ratio was 5.7.

Q: What about the Activity [21] of the same compound?
A: The Activity was 0.

Q: What does the source list for `N[C@@H](Cc1ccccc1)C(=O)NC[C@H](N)C(=O)Nc1ccc(C#Cc2c(F)c(F)nc(F)c2F)cc1`?
A: Kb [1]: 23300; KSV [2]: 5.9; KSV [3]: 2.6; pKa at 10 µM [4]: 6.3; pKa at 10 µM [5]: 7.8; KSV [6]: 9.4; Kb [7]: 22300; Kb [8]: 14600; Ratio [10]: 1.1

Q: With `NCC(=O)NCCC[C@H](N)C(=O)Nc1ccc(C#Cc2c(F)c(F)nc(F)c2F)cc1` as the compound, how does the Kb [1] read?
A: The Kb was 15000.

Q: And the KSV [2]?
A: The KSV was 4.4.

Q: What about the Activity [25] of the same compound?
A: The Activity was “Active”.

Q: What about the KSV [3] of the same compound?
A: Its KSV is 1.5.

Q: And the pKa at 10 µM [4]?
A: The pKa at 10 µM was 7.

Q: And the Activity [26]?
A: The Activity was “Active”.

Q: And the KSV [6]?
A: Its KSV is 7.

Q: And the pKa at 1000 µM [14]?
A: The pKa at 1000 µM was 7.7.

Q: What about the pKa at 1000 µM [17] of the same compound?
A: Its pKa at 1000 µM is 7.2.

Q: And the Kb [7]?
A: Its Kb is 2830.

Q: What about the Activity [22] of the same compound?
A: The Activity was “Active”.

Q: And the Kb [8]?
A: Its Kb is 10500.

Q: And the Ratio [10]?
A: Its Ratio is over 4.

Q: Which results are given for `C[C@H](N)C(=O)NCCC[C@H](N)C(=O)Nc1ccc(C#Cc2c(F)c(F)nc(F)c2F)cc1`?
A: Kb [1]: 20200; KSV [2]: 7.8; KSV [3]: 5.2; pKa at 10 µM [4]: 6.6; KSV [6]: 11.1; pKa at 1000 µM [14]: 7.8; pKa at 1000 µM [17]: 7; Kb [7]: 4440; Kb [8]: 6750; Activity [9]: Active; Ratio [10]: 4.6

Q: Which results are given for `N[C@@H](Cc1c[nH]c2ccccc12)C(=O)NCCCC[C@H](N)C(=O)Nc1ccc(C#Cc2c(F)c(F)nc(F)c2F)cc1`?
A: Kb [1]: 18000; KSV [2]: 9.2; Activity [25]: Active; KSV [3]: 5.7; Activity [11]: 0.2; Activity [12]: 0.15; pKa at 10 µM [4]: 7.3; Activity [26]: Active; Activity [13]: 0.9; KSV [6]: 26; Ratio [15]: 4.3; Activity [16]: 0.7; Kb [7]: 10400; Ratio [18]: 5.3; Activity [22]: Active; Activity [19]: 0.8; Kb [8]: 16800; Ratio [10]: 1.7; Activity [21]: 0
